Our source for the TGI and GI50 values is PubChem BioAssay (NCI).

Some test systems named below: DLD-1 colon; DMS 273 small cell lung; SNB-78 CNS; RXF-631 renal; DMS 114 small cell lung; XF 498 CNS; LXFL 529 NSCLC; MDA-N; M19-MEL melanoma.
Holding throughout (assay): growth of human tumour cells (NCI), 48 h

“And” between values parts separate entries of the source, which are not always exact repeats. Equal entries are not always repeated.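 Grown in 96-well plates, cells were treated for 48 hours with each compound at five concentrations. Insufficient inhibition: endpoint recorded as highest concentration tested. The concentration for 50% growth inhibition is given as GI50. TGI denotes the concentration required for complete inhibition of growth.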

`O=C(Cc1ccccc1)NS(=O)(=O)c1ccccc1`: the TGI in the test with DLD-1 colon, with DMS 273 small cell lung, in the test with SNB-78 CNS, in the test with RXF-631 renal, with DMS 114 small cell lung and in the test with XF 498 CNS was above 100 µM each time. Further, the TGI in the test on LXFL 529 NSCLC is above 100 µM.

Regarding `Cn1c(=N)n[n+]([O-])c2ccccc21`, in the test on MDA-N, the TGI came out at 3.66 µM.

On to `CCOC(=O)NC1CC2CCC1(OC)C=C2C` (stereo not given), for which the TGI with M19-MEL melanoma, with DLD-1 colon, in the test on DMS 273 small cell lung, in the test with SNB-78 CNS, in the test on DMS 114 small cell lung and in the test on XF 498 CNS was above 100 µM in each case. The molecule also registered a TGI with LXFL 529 NSCLC above 100 µM.

The molecule `N#CSc1ccc(S(N)(=O)=O)cc1` had a TGI with MDA-N above 100 µM.

On to `COC(=O)C1=C(C)N(NC(N)=O)C(C)(O)C12CCOC2=O` (stereo not given), for which the TGI with M19-MEL melanoma, in the test on DLD-1 colon, in the test with DMS 273 small cell lung, with SNB-78 CNS, in the test on DMS 114 small cell lung and in the test with XF 498 CNS was above 100 µM throughout. In the test with LXFL 529 NSCLC, this molecule gave a TGI above 100 µM.

In the case of `CCCCCCNCCCNc1c2ccccc2nc2cccc([N+](=O)[O-])c12`, in the test with MDA-N, the TGI is 0.0252 µM and 0.103 µM.

`O=NN(CCCl)C(=O)N[C@H]1CCCC[C@@H]1Cl`: the TGI with M19-MEL melanoma, with DLD-1 colon, in the test on DMS 273 small cell lung, in the test on DMS 114 small cell lung, with XF 498 CNS and with LXFL 529 NSCLC was above 100 µM each time.

Take `COC1CC(OC)C(O)C(CO)O1` (stereo not given): the TGI with M19-MEL melanoma, in the test on DLD-1 colon, with SNB-78 CNS, with XF 498 CNS and in the test with LXFL 529 NSCLC was above 100 µM throughout.

Regarding `O=C(O)CCSC(=S)Nc1ccc([N+](=O)[O-])cc1`, the TGI is 58.4 µM in the test on MDA-N; above 100 µM with DMS 273 small cell lung; above 100 µM in the test on SNB-78 CNS; above 100 µM in the test with DMS 114 small cell lung; above 100 µM in the test on LXFL 529 NSCLC.

Take `CC[CH2][Sn]([CH2]CC)([O]C(=O)Cc1ccc(F)cc1)[O][Sn]([CH2]CC)([CH2]CC)[O]C(=O)Cc1ccc(F)cc1`: the GI50 with MDA-N was 0.317 µM; in the test on M19-MEL melanoma, 0.0593 µM; with DLD-1 colon it was 0.122 µM; in the test on DMS 273 small cell lung, 0.205 µM; with DMS 114 small cell lung, 0.029 µM; in the test with XF 498 CNS, 0.161 µM. The GI50 with LXFL 529 NSCLC is 0.0129 µM. In addition, the TGI with MDA-N worked out at 1.43 µM; in the test on M19-MEL melanoma it was 0.276 µM; in the test with DLD-1 colon, 0.432 µM; with DMS 273 small cell lung, 1.13 µM; in the test with DMS 114 small cell lung it was 0.119 µM; in the test with XF 498 CNS it was 0.302 µM. In addition, the TGI with LXFL 529 NSCLC worked out at 0.099 µM.

In the case of `O=C(O)[C@@H](NS(=O)(=O)c1ccc([N+](=O)[O-])cc1)c1ccccc1`, the TGI in the test with M19-MEL melanoma, in the test with DLD-1 colon, with DMS 273 small cell lung, in the test with RXF-631 renal, in the test on XF 498 CNS and in the test on LXFL 529 NSCLC was above 100 µM in each case.

Molecule `Cc1cc(N(CCOS(C)(=O)=O)CCOS(C)(=O)=O)ccc1C=Nc1ccc(-c2csc(-c3ccc(Br)cc3)n2)cc1` yielded a TGI in the test with MDA-N of 56.6 µM.

Regarding `Cc1ccc(N2C(=O)C(Cl)=C(Cl)C2=O)cc1`, the TGI with M19-MEL melanoma is 41.9 µM; in the test with DLD-1 colon it was 40.7 µM; with DMS 273 small cell lung it was above 100 µM; in the test with SNB-78 CNS, 54.9 µM; with RXF-631 renal it was 42.2 µM; with DMS 114 small cell lung, 36.5 µM. The molecule also had a TGI with LXFL 529 NSCLC of 38.5 µM.

As for `Cc1c(CC/C(=N\Nc2ccc([N+](=O)[O-])cc2[N+](=O)[O-])c2ccccc2)c2ccccc2n1C`, the TGI with M19-MEL melanoma, in the test with DLD-1 colon, in the test with DMS 273 small cell lung, in the test with SNB-78 CNS, in the test on RXF-631 renal and with DMS 114 small cell lung was above 100 µM each time. Further, the TGI in the test with XF 498 CNS and with LXFL 529 NSCLC was above 100 µM in each case.

As to `CCOC(=O)c1cc(OC(=O)CC)c2c(OC)ccc(OC)c2c1`, the TGI in the test on M19-MEL melanoma, in the test on DLD-1 colon, in the test on DMS 273 small cell lung, in the test with DMS 114 small cell lung, with XF 498 CNS and with LXFL 529 NSCLC was above 100 µM each time.

In the case of `C=C[C@H]1C=Cc2c(OC)cccc2[C@@H]1COP1(=S)NC(C)C(c2ccccc2)O1` (stereo not given in full), the TGI with M19-MEL melanoma, in the test with DLD-1 colon, in the test with DMS 273 small cell lung, in the test on SNB-78 CNS, with DMS 114 small cell lung and in the test on XF 498 CNS was above 100 µM throughout. Also, the TGI with LXFL 529 NSCLC was above 100 µM.

`COc1ccc(C2c3c(-c4ccccc4)nn(-c4ccccc4)c3Oc3ncn4nc(CC#N)nc4c32)cc1OC` (stereo not given): in the test on MDA-N, the GI50 was > 100 µM and 16.2 µM; the TGI was above 100 µM.

Regarding `Cc1ccc(NC(=O)c2cc3ccccc3cc2O)c(C)c1.Cc1ccc(NC(=O)c2cc3ccccc3cc2[O-])c(C)c1.[Ni+2]`, in the test with MDA-N, the GI50 is 3.44 µM and the TGI is 17.3 µM.

Regarding `CC(C)c1ccc2nc3ccc(C(=O)NCCN4CCN(c5ccccc5)CC4)cn3c(=O)c2c1`, the TGI with MDA-N was above 100 µM.

Regarding `C[CH2][Sn]([CH2]C)([O]C(=O)c1ccc(F)cc1)[O][Sn]([CH2]C)([CH2]C)[O]C(=O)c1ccc(F)cc1`, the GI50 in the test with M19-MEL melanoma is 45.9 µM; with DLD-1 colon, 23.6 µM; with DMS 273 small cell lung it was above 100 µM; with SNB-78 CNS it was 21.1 µM; with XF 498 CNS, 16.4 µM; in the test on LXFL 529 NSCLC, 13 µM. Besides, the TGI is above 100 µM in the test with M19-MEL melanoma; above 100 µM in the test on DLD-1 colon; above 100 µM in the test on DMS 273 small cell lung; 50.4 µM in the test with SNB-78 CNS; 31 µM in the test with XF 498 CNS; 25.8 µM in the test with LXFL 529 NSCLC.

For the molecule `COc1ccccc1NC(=O)C(CC(C(=O)Nc1ccccc1OC)/C(C)=N/NC(=O)c1ccccc1O)/C(C)=N/NC(=O)c1ccccc1O` (stereo not given), the TGI with M19-MEL melanoma, in the test with DLD-1 colon, in the test on DMS 273 small cell lung, in the test with SNB-78 CNS, in the test with RXF-631 renal and in the test with DMS 114 small cell lung was above 100 µM each time. Further, the TGI in the test on XF 498 CNS and with LXFL 529 NSCLC was above 100 µM throughout.

With `CCCN1C(=O)CNC(=O)c2[nH]cnc21`, the TGI in the test with M19-MEL melanoma, in the test with DLD-1 colon, in the test on SNB-78 CNS, with DMS 114 small cell lung, in the test with XF 498 CNS and with LXFL 529 NSCLC was above 100 µM throughout.
